± gives the standard deviation of the averaged measurements.
Assays:
HL-60 [1] = test: cell viability (% survival relative to DMSO control); higher = less cytotoxic; details: 72 h
Summary of the method: (§1)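 In 384-well plates, the full library was rescreened in duplicate on HL-60 cells in RPMI 1640 with 10% FBS, at 1–10,000 nM in five tenfold concentrations, for 72 h at 37 °C, 5% CO2. Each run also held DMSO or 100 nM of one of three metabolic inhibitors. Viability was measured by CellTiter-Glo and normalised to DMSO wells and to wells with proteasome inhibitor, present at 10 μM. Any area under the curve comes from four-parameter log-logistic fitting with drc and PharmacoGx.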

HL-60 [2] = test: area under dose-response curve (viability, 1 nM-10 uM) (fraction (0-1)); higher = more sensitive; details: 72 h
Summary of the method: as §1

[3] = 0.001 µM, co-treatment: AZD3965 100 nM
[4] = 0.001 µM, co-treatment: DMSO vehicle
[5] = 0.001 µM, co-treatment: GSK2194069 100 nM
[6] = 0.001 µM, co-treatment: pictilisib 100 nM
[7] = 0.01 µM, co-treatment: AZD3965 100 nM
[8] = 0.01 µM, co-treatment: DMSO vehicle
[9] = 0.01 µM, co-treatment: GSK2194069 100 nM
[10] = 0.01 µM, co-treatment: pictilisib 100 nM
[11] = 0.1 µM, co-treatment: AZD3965 100 nM
[12] = 0.1 µM, co-treatment: DMSO vehicle
[13] = 0.1 µM, co-treatment: GSK2194069 100 nM
[14] = 0.1 µM, co-treatment: pictilisib 100 nM
[15] = 1 µM, co-treatment: AZD3965 100 nM
[16] = 1 µM, co-treatment: DMSO vehicle
[17] = 1 µM, co-treatment: GSK2194069 100 nM
[18] = 1 µM, co-treatment: pictilisib 100 nM
[19] = 10 µM, co-treatment: AZD3965 100 nM
[20] = 10 µM, co-treatment: DMSO vehicle
[21] = 10 µM, co-treatment: GSK2194069 100 nM
[22] = 10 µM, co-treatment: pictilisib 100 nM
[23] = co-treatment: GSK2194069 100 nM
[24] = co-treatment: pictilisib 100 nM

Compound | cell viability (HL-60 [1]; [3]) | cell viability (HL-60 [1]; [4]) | cell viability (HL-60 [1]; [5]) | cell viability (HL-60 [1]; [6]) | cell viability (HL-60 [1]; [7]) | cell viability (HL-60 [1]; [8]) | cell viability (HL-60 [1]; [9]) | cell viability (HL-60 [1]; [10]) | cell viability (HL-60 [1]; [11]) | cell viability (HL-60 [1]; [12]) | cell viability (HL-60 [1]; [13]) | cell viability (HL-60 [1]; [14]) | cell viability (HL-60 [1]; [15]) | cell viability (HL-60 [1]; [16]) | cell viability (HL-60 [1]; [17]) | cell viability (HL-60 [1]; [18]) | cell viability (HL-60 [1]; [19]) | cell viability (HL-60 [1]; [20]) | cell viability (HL-60 [1]; [21]) | cell viability (HL-60 [1]; [22]) | area under dose-response curve (HL-60 [2]; co-treatment: AZD3965 100 nM) | area under dose-response curve (HL-60 [2]; co-treatment: DMSO vehicle) | area under dose-response curve (HL-60 [2]; [23]) | area under dose-response curve (HL-60 [2]; [24])
CC[C@H](C)[C@H](N)C(=O)N1CCSC1 [P32/98] | 99.83 ± 0.39% | 99.4 ± 4% | 99.6 ± 1.6% | 105 ± 1.3% | 97.4 ± 1.5% | 105 ± 3.5% | 100 ± 3.4% | 106 ± 19% | 102 ± 5.5% | 99.5 ± 1.5% | 98.8 ± 3.1% | 96.3 ± 2% | 98.4 ± 1.6% | 98.74 ± 0.79% | 98.7 ± 4.2% | 105 ± 3.8% | 95.6 ± 4% | 97.8 ± 4.4% | 96.6 ± 6.2% | 101 ± 9.5% | < 0.0301 | < 0.0301 | < 0.0301 | < 0.0301
O=C(NCCN1CCC(n2c(O)nc3ccccc32)CC1)c1cc2cc(F)ccc2[nH]1 [FIPI] | 104 ± 2.1% | 101.7 ± 0.73% | 98.6 ± 1.2% | 106 ± 9.6% | 99.7 ± 3.9% | 100.3 ± 0.26% | 99.3 ± 1.1% | 105.7 ± 0.28% | 103 ± 14% | 104 ± 2.4% | 102 ± 6.9% | 110 ± 12% | 102 ± 4.5% | 108 ± 4.5% | 106 ± 5.5% | 110 ± 1.8% | 107 ± 3.7% | 107 ± 3% | 91.2 ± 1.8% | 95.5 ± 7.1% | < 0.0301 | < 0.0301 | < 0.0301 | < 0.0301
CCc1oc2ccccc2c1C(=O)c1cc(Br)c(O)c(Br)c1 [Benzbromarone] | 98.7 ± 1.8% | 101 ± 1.1% | 95.9 ± 1.3% | 93.8 ± 3.1% | 99.3 ± 1.6% | 99 ± 2.1% | 104 ± 4.5% | 99.8 ± 1% | 98.9 ± 1.8% | 101 ± 4% | 105 ± 9.6% | 97.7 ± 4.2% | 102 ± 2.5% | 103 ± 2.3% | 102.3 ± 0.5% | 118 ± 10% | 99.81 ± 0.45% | 101.1 ± 0.99% | 97.85 ± 0.96% | 98 ± 12% | < 0.0301 | < 0.0301 | < 0.0301 | < 0.0301
Cc1nc(-c2ccccc2)sc1C(=O)Nc1ccc(S(N)(=O)=O)cc1 | 101 ± 2.2% | 103 ± 2.4% | 99.3 ± 3.8% | 101 ± 1.8% | 109 ± 3.9% | 109 ± 1.8% | 104 ± 1.3% | 97.6 ± 6.2% | 96 ± 1.3% | 100.3 ± 1% | 85.9 ± 4.9% | 92 ± 1.2% | 94.8 ± 7.5% | 97.5 ± 1.4% | 91.2 ± 9.1% | 97.9 ± 1.8% | 99.97 ± 0.89% | 98.6 ± 2.6% | 96.25 ± 0.77% | 99.5 ± 6% | < 0.0301 | < 0.0301 | < 0.0301 | < 0.0301
N#Cc1ccc(N(Cc2ccc(Br)cc2)n2cnnc2)cc1 [YM511] | 83.2 ± 8.3% | 96.8 ± 4% | 96.8 ± 2% | 88.1 ± 9.3% | 106 ± 6.3% | 102 ± 4.8% | 81 ± 33% | 79.9 ± 18% | 102 ± 2% | 101.39 ± 0.056% | 105 ± 5.9% | 99.6 ± 1.7% | 95.3 ± 5.1% | 101 ± 2.3% | 97.49 ± 0.82% | 92.9 ± 4.6% | 96.88 ± 0.89% | 104 ± 4.4% | 102 ± 2.3% | 95.3 ± 5.3% | – | – | – | –
CN(CCCOc1ccc(Cc2ccccc2)cc1)CCC(=O)O | 98 ± 1.6% | 106 ± 1.8% | 102.15 ± 0.037% | 98.7 ± 14% | 101 ± 7.5% | 100 ± 4.3% | 102 ± 4.6% | 110 ± 3.2% | 112 ± 15% | 104 ± 3.2% | 105.1 ± 0.41% | 114 ± 20% | 99.6 ± 0.52% | 100 ± 2.7% | 103 ± 9.3% | 97.8 ± 4.1% | 99.54 ± 0.33% | 98.6 ± 0.22% | 101 ± 5.6% | 93.3 ± 3.2% | < 0.0301 | < 0.0301 | < 0.0301 | < 0.0301
CCn1c(=Cc2cccc[n+]2CC)sc(=C2Sc3ccccc3N2C)c1=O [MKT 077] | 95.2 ± 2.8% | 102 ± 4.8% | 92 ± 3% | 95.6 ± 3.1% | 102 ± 3.6% | 105 ± 2.6% | 104 ± 8.8% | 113.3 ± 0.81% | 97.3 ± 6.6% | 97.35 ± 0.5% | 96 ± 2% | 99.2 ± 3.6% | 88.22 ± 0.49% | 100.14 ± 0.022% | 76.1 ± 3.7% | 93.3 ± 3.5% | 97.7 ± 8.2% | 106 ± 3.7% | 73.5 ± 28% | 110 ± 18% | < 0.0301 | < 0.0301 | – | < 0.0301

Reference: the supplement of paper PMC8671470
